{"source": "patent EP4574175A1", "about": "“PRODRUG FOR ANTI-AGING RELATED DISEASES AND USE METHOD THEREFOR” (BEIJING SUNCELL BIO-MEDICAL CO., LTD., priority 2022, dated 2024)", "key": {"[1]": {"settings": "dog, 1 µM"}, "[2]": {"test": "in vitro", "settings": "mouse", "procedure": "[…] Samples were taken and analyzed at time points 0, 15, 30, 45 and 60 minutes during the incubation. The reaction was terminated by adding an amount of acetonitrile solution containing the internal standard. […] The residual percentage, half-life, intrinsic clearance, amplified clearance, hepatic clearance and hepatic extraction ratio were determined. The entire experiment was performed in triplicate. All data calculations were performed by Microsoft Excel software. Peak areas were detected by extracting the ionic spectrum. The in vitro half-life (t1/2) of the parent compound was detected by fitting the natural logarithm of the percentage elimination of the parent compound linearly to time.\nThe in vitro intrinsic clearance (in µL/min/mg protein) was calculated using the following equation: in vitro CLint = kV/N\nThe amplified clearance (in mL/min/kg) was calculated using the following equation: Amplified CLint = kV/N × the amplification factor [formula]\nThe hepatic clearance (in mL/min/kg) was calculated using the following equation: The predicted hepatic CLH = (Q×Fu/RB×theamplifiedCLint)/([…]) [formula] • V = the incubation volume per well (0.2 mL); • N = the total amount of protein (mg) • Q = the hepatic blood flow (mL/min/kg) • Fu = the plasma free rate (assumed to be 1) • RB = the whole blood partition coefficient (assumed to be 1)\nThe hepatic […] was calculated using the following equation: The hepatic extraction ratio(ER) = (thepredictedhepaticCLH)/Q [formula]"}, "[3]": {"test": "in vitro", "settings": "dog"}, "[4]": {"test": "in vitro", "settings": "human"}, "[5]": {"settings": "human, 1 µM"}, "[6]": {"settings": "rat, 1 µM"}, "[7]": {"settings": "monkey, 1 µM"}, "[8]": {"test": "in vitro", "settings": "monkey"}, "[9]": {"test": "in vitro", "settings": "rat"}}, "note": "Read-outs that look alike come from different tables or passages of the source."}
{"smiles": "O=c1ccc2ccc(O)cc2o1", "note": "[7-hydroxycoumarin]", "values": [{"measurement": "The hepatic extraction ratio (E)", "setting": "[1]", "result": 0.99}, {"measurement": "CLint scaled at 1 µM", "setting": "[2]", "result": 87.8, "unit": "mL/min/kg"}, {"measurement": "The hepatic extraction ratio (E)", "setting": "[2]; 1 µM", "result": 0.98}, {"measurement": "CLint scaled at 1 µM", "setting": "[2]; microsomes", "result": 3630, "unit": "mL/min/kg"}, {"measurement": "half-life at 1 µM", "setting": "[2]; microsomes", "result": 1.68, "unit": "min"}, {"measurement": "microsomal CLint at 1 µM", "setting": "[2]; microsomes", "result": 824, "unit": "µL/min/mg"}, {"measurement": "CLint scaled at 1 µM", "setting": "[3]", "result": 30.4, "unit": "mL/min/kg"}, {"measurement": "CLint scaled at 1 µM", "setting": "[3]; microsomes", "result": 2050, "unit": "mL/min/kg"}, {"measurement": "half-life at 1 µM", "setting": "[3]; microsomes", "result": 1.68, "unit": "min"}, {"measurement": "microsomal CLint at 1 µM", "setting": "[3]; microsomes", "result": 824, "unit": "µL/min/mg"}, {"measurement": "CLint scaled at 1 µM", "setting": "[4]", "result": 20.2, "unit": "mL/min/kg"}, {"measurement": "CLint scaled at 1 µM", "setting": "[4]; microsomes", "result": 774, "unit": "mL/min/kg"}, {"measurement": "half-life at 1 µM", "setting": "[4]; microsomes", "result": 2.25, "unit": "min"}, {"measurement": "microsomal CLint at 1 µM", "setting": "[4]; microsomes", "result": 617, "unit": "µL/min/mg"}, {"measurement": "The hepatic extraction ratio (E)", "setting": "[5]", "result": 0.97}, {"measurement": "The hepatic extraction ratio (E)", "setting": "[6]", "result": 0.95}, {"measurement": "The hepatic extraction ratio (E)", "setting": "[7]", "result": 0.97}, {"measurement": "CLint scaled at 1 µM", "setting": "[8]; The predicted intrinsic hepatic clearance Cl int", "result": 42.1, "unit": "mL/min/kg"}, {"measurement": "half-life at 1 µM", "setting": "[8]; microsomes", "result": 1.72, "unit": "min"}, {"measurement": "microsomal CLint at 1 µM", "setting": "[8]; microsomes", "result": 806, "unit": "µL/min/mg"}, {"measurement": "CLint scaled at 1 µM", "setting": "[8]; microsomes, The amplified intrinsic clearance Cl int", "result": 1210, "unit": "mL/min/kg"}, {"measurement": "CLint scaled at 1 µM", "setting": "[9]", "result": 52.3, "unit": "mL/min/kg"}, {"measurement": "CLint scaled at 1 µM", "setting": "[9]; microsomes", "result": 1010, "unit": "mL/min/kg"}, {"measurement": "half-life at 1 µM", "setting": "[9]; microsomes", "result": 2.47, "unit": "min"}, {"measurement": "microsomal CLint at 1 µM", "setting": "[9]; microsomes", "result": 562, "unit": "µL/min/mg"}]}
